In patent publication US8889881B2, “Compound having skin-whitening, anti-oxidizing and PPAR activities and medical use therefor” (Pusan National University Industry —University Cooperation …, priority 2011, dated 2014):

Experiments:
PPAR alpha-LBD = molecular target: T1, PPAR alpha-LBD (Homo sapiens, UniProt Q07869); test: PPAR assay, PPARα; details: for PPARα activation (competitive activation rate), compared with fenofibrate: sample final concentration 100 μM, positive control fenofibrate, FIGS. 5 and 6; for simultaneous activation of PPARα and PPARγ: summary of the PPARα and PPARγ assays, sample 100 μM
T1 sequence (Q07869 239-466 limits assumed): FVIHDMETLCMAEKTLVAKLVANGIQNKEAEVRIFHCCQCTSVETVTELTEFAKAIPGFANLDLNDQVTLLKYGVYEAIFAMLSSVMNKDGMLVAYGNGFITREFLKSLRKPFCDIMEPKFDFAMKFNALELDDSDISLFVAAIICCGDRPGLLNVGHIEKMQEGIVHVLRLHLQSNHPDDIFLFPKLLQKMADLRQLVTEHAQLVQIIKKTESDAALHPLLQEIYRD

PPAR gamma-LBD = molecular target: T2, PPAR gamma-LBD (Homo sapiens, UniProt P37231); test: PPAR assay, PPARγ; assay type: binding; details: sample final concentration 100 μM; positive control rosiglitazone; FIGS. 7 and 8
T2 sequence (P37231 238-503 limits assumed): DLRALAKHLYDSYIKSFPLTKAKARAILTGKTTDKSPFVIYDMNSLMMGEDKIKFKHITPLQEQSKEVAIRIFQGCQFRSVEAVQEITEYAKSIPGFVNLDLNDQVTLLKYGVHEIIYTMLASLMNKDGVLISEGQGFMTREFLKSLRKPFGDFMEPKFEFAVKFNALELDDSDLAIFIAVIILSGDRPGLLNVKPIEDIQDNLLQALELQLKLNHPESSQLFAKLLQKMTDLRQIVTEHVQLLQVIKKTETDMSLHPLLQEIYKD

Row | Compound | melting point [°C] | PPARα activation (competitive activation rate), compared with fenofibrate (PPAR alpha-LBD) | simultaneous activation of PPARα and PPARγ (PPAR alpha-LBD) | PPARγ activation (competitive activation rate), compared with rosiglitazone (PPAR gamma-LBD)
1 | COc1ccc(-c2nc3ccccc3s2)cc1OC [Compound 20, 2-(3,4-dimethoxyphenyl)benzo[d]thiazole] | 135 to 137.2 | very excellent PPARα activation agent compared to fenofibrate | simultaneously activates PPARα and PPARγ | very excellent PPARγ activation agent compared to rosiglitazone
2 | COc1cc(-c2nc3ccccc3s2)cc(OC)c1OC [Compound 24, 2-(3,4,5-trimethoxyphenyl)benzo[d]thiazole] | 149.5 to 151.1 | very excellent PPARα activation agent compared to fenofibrate | simultaneously activates PPARα and PPARγ | very excellent PPARγ activation agent compared to rosiglitazone
3 | COc1cc(-c2nc3ccccc3s2)cc(OC)c1O [Compound 25, 4-(benzo[d]thiazol-2-yl)-2,6-dimethoxyphenol] | 153.5 to 156.1 | very excellent PPARα activation agent compared to fenofibrate | simultaneously activates PPARα and PPARγ | very excellent PPARγ activation agent compared to rosiglitazone
4 | Oc1ccc(-c2nc3cc(C(F)(F)F)ccc3s2)cc1 [Compound 28, 4-(5-(trifluoromethyl)benzo[d]thiazol-2-yl)phenol] | 187.2 to 188.9 | very excellent PPARα activation agent compared to fenofibrate | simultaneously activates PPARα and PPARγ | very excellent PPARγ activation agent compared to rosiglitazone
5 | COc1cc(-c2nc3cc(C(F)(F)F)ccc3s2)ccc1O [Compound 31, 2-methoxy-4-(5-(trifluoromethyl)benzo[d]thiazol-2-yl)phenol] | 155.7 to 159.9 | very excellent PPARα activation agent compared to fenofibrate | simultaneously activates PPARα and PPARγ | very excellent PPARγ activation agent compared to rosiglitazone
6 | CCOc1cc(-c2nc3cc(C(F)(F)F)ccc3s2)ccc1O [Compound 32, 2-ethoxy-4-(5-(trifluoromethyl)benzo[d]thiazol-2-yl)phenol] | 117 to 117.8 | very excellent PPARα activation agent compared to fenofibrate | simultaneously activates PPARα and PPARγ | very excellent PPARγ activation agent compared to rosiglitazone
7 | COc1ccc(-c2nc3cc(C(F)(F)F)ccc3s2)cc1 [Compound 34, 2-(4-methoxyphenyl)-5-(trifluoromethyl)benzo[d]thiazole] | 128.8 to 130.1 | – | – | very excellent PPARγ activation agent compared to rosiglitazone
8 | COc1cc(-c2nc3cc(C(F)(F)F)ccc3s2)cc(OC)c1O [Compound 40, 2,6-dimethoxy-4-(5-(trifluoromethyl)benzo[d]thiazol-2-yl)phenol] | 220.6 to 222.6 | very excellent PPARα activation agent compared to fenofibrate | simultaneously activates PPARα and PPARγ | very excellent PPARγ activation agent compared to rosiglitazone
9 | COc1ccc(-c2nc3ccccc3[nH]2)c(OC)c1 [Compound 52, 2-(2,4-dimethoxyphenyl)-1H-benzo[d]imidazole] | – | very excellent PPARα activation agent compared to fenofibrate | simultaneously activates PPARα and PPARγ | very excellent PPARγ activation agent compared to rosiglitazone
10 | Oc1ccccc1-c1nc2ccccc2[nH]1 [Compound 53, 2-(1H-benzo[d]imidazol-2-yl)phenol] | – | very excellent PPARα activation agent compared to fenofibrate | simultaneously activates PPARα and PPARγ | very excellent PPARγ activation agent compared to rosiglitazone
11 | O=C(O)c1ccc2[nH]c(-c3ccc(O)cc3O)nc2c1 [Compound 59, 2-(2,4-dihydroxyphenyl)-1H-benzo[d]imidazole-5-carboxylic acid] | > 300 | very excellent PPARα activation agent compared to fenofibrate | simultaneously activates PPARα and PPARγ | very excellent PPARγ activation agent compared to rosiglitazone
12 | COc1ccc(-c2nc3cc(C(=O)O)ccc3[nH]2)cc1 [Compound 63, 2-(4-methoxyphenyl)-1H-benzo[d]imidazole-5-carboxylic acid] | 264.7 to 265.4 | very excellent PPARα activation agent compared to fenofibrate | simultaneously activates PPARα and PPARγ | very excellent PPARγ activation agent compared to rosiglitazone
13 | COc1ccc(-c2nc3cc(C(=O)O)ccc3[nH]2)cc1OC [Compound 64, 2-(3,4-dimethoxyphenyl)-1H-benzo[d]imidazole-5-carboxylic acid] | – | very excellent PPARα activation agent compared to fenofibrate | simultaneously activates PPARα and PPARγ | very excellent PPARγ activation agent compared to rosiglitazone
14 | COc1ccc(-c2nc3cc(C(=O)O)ccc3[nH]2)c(OC)c1 [Compound 65, 2-(2,4-dimethoxyphenyl)-1H-benzo[d]imidazole-5-carboxylic acid] | – | very excellent PPARα activation agent compared to fenofibrate | simultaneously activates PPARα and PPARγ | very excellent PPARγ activation agent compared to rosiglitazone
15 | O=C(O)c1ccc2[nH]c(-c3ccccc3O)nc2c1 [Compound 66, 2-(2-hydroxyphenyl)-1H-benzo[d]imidazole-5-carboxylic acid] | – | very excellent PPARα activation agent compared to fenofibrate | simultaneously activates PPARα and PPARγ | very excellent PPARγ activation agent compared to rosiglitazone
16 | COc1cc(-c2nc3cc(C(=O)O)ccc3[nH]2)cc(OC)c1OC [Compound 67, 2-(3,4,5-trimethoxyphenyl)-1H-benzo[d]imidazole-5-carboxylic acid] | – | very excellent PPARα activation agent compared to fenofibrate | simultaneously activates PPARα and PPARγ | very excellent PPARγ activation agent compared to rosiglitazone
17 | O=C(O)c1ccc2[nH]c(-c3ccc(O)c(Br)c3)nc2c1 [Compound 69, 2-(3-bromo-4-hydroxyphenyl)-1H-benzo[d]imidazole-5-carboxylic acid] | – | very excellent PPARα activation agent compared to fenofibrate | simultaneously activates PPARα and PPARγ | very excellent PPARγ activation agent compared to rosiglitazone
18 | O=C(O)c1ccc2[nH]c(-c3cc(Br)c(O)c(Br)c3)nc2c1 [Compound 70, 2-(3,5-dibromo-4-hydroxyphenyl)-1H-benzo[d]imidazole-5-carboxylic acid] | – | very excellent PPARα activation agent compared to fenofibrate | simultaneously activates PPARα and PPARγ | very excellent PPARγ activation agent compared to rosiglitazone
19 | CC(C)(Oc1ccc(-c2nc3ccccc3s2)cc1)C(=O)O [Compound 97, 2-(4-(benzo[d]thiazol-2-yl)phenoxy)-2-methylpropanoic acid] | – | very excellent PPARα activation agent compared to fenofibrate | simultaneously activates PPARα and PPARγ | very excellent PPARγ activation agent compared to rosiglitazone
20 | O=C(O)c1ccc2[nH]c(-c3ccc(OCc4ccccc4)cc3)nc2c1 [Compound 113, 2-(4-(benzyloxy)phenyl)-1H-benzo[d]imidazole-5-carboxylic acid] | – | very excellent PPARα activation agent compared to fenofibrate | simultaneously activates PPARα and PPARγ | very excellent PPARγ activation agent compared to rosiglitazone
